Results: patent publication US11401257B2, “Solid forms of 2-(4-chlorophenyl)-N-((2-(2,6-dioxopiperidin-3-yl)-1-oxoisoindolin-5-yl)methyl)-2,2-difluoroacetamide, and their pharmaceutical compositions and uses” (Celgene Corporation, priority 2016, dated 2022)
Converted amounts (≈) assume the structure as drawn.

Legend:
Type in all cases: physicochemical
[1] = Hygroscopicity by dynamic vapor sorption (DVS); settings: for water uptake (DVS): relative humidity increased from about 0% to about 90% RH; for DVS water uptake: up to 90% RH
Procedure: Hygroscopicity was determined on a Surface Measurement Systems DVS. Typically a sample size of 5-20 mg was loaded into the DVS instrument sample pan and the sample was analyzed on a DVS automated sorption analyzer at room temperature. The relative humidity was increased from 0% to 90% RH at 10% RH step, then decreased in a similar manner to accomplish a full adsorption/desorption cycle.

physchem [2] = settings: water, thermodynamic from solid, Approximate Solubility
Procedure: In order to select the screening solvents and to determine the concentration range to be used in the screen, a quantitative solubility assessment was performed on Form B and Form C of Compound 1.

physchem [3] = settings: for solubility at 24 h: thermodynamic from solid
Procedure: Solubility of Form C in selected aqueous and organic solvents was determined by mixing solid with solvents at room temperature. […]

[4] = Form conversion experiments (interconversion among solid forms); settings: anhydrates of Compound 1
Procedure: Further form conversion experiments were performed to determine interconversion among solid forms.

Row | SMILES | water uptake (DVS) [1] | DVS water uptake [1] | solubility (physchem [2]) | solubility (physchem [3]; 2 h) | solubility at 24 h (physchem [3]; pH 4, aqueous buffer) | solubility at 24 h (physchem [3]; pH 6.8, aqueous buffer) | thermodynamic stability among the crystal forms [4]
1 | O=C1CCC(N2Cc3cc(CNC(=O)C(F)(F)c4ccc(Cl)cc4)ccc3C2=O)C(=O)N1 (centres unmarked) [Form A, 2-(4-chlorophenyl)-N-((2-(2,6-dioxopiperidin-3-yl)-1-oxoisoindolin-5-yl)methyl)-2,2-difluoroacetamide] | about 1.2 % w/w | ~1.2 wt % water | – | – | – | – | –
2 | O=C1CCC(N2Cc3cc(CNC(=O)C(F)(F)c4ccc(Cl)cc4)ccc3C2=O)C(=O)N1 (centres unmarked) [Form B, 2-(4-chlorophenyl)-N-((2-(2,6-dioxopiperidin-3-yl)-1-oxoisoindolin-5-yl)methyl)-2,2-difluoroacetamide] | about 1.4 % w/w | ~1.4 wt % water | < 1000 µg/mL | – | – | – | –
3 | O=C1CCC(N2Cc3cc(CNC(=O)C(F)(F)c4ccc(Cl)cc4)ccc3C2=O)C(=O)N1 (centres unmarked) [Form C, 2-(4-chlorophenyl)-N-((2-(2,6-dioxopiperidin-3-yl)-1-oxoisoindolin-5-yl)methyl)-2,2-difluoroacetamide] | about 0.6 % w/w | ~0.6 wt % water | – | 843 µg/mL (≈ 1830 µM) | 1 µg/mL (≈ 2.17 µM) | 1 µg/mL (≈ 2.17 µM) | most thermodynamically stable anhydrate
